Where “and” joins values, the source holds several entries; their conditions need not be identical. Equal entries are not always repeated.
Test: xn = mol fraction of the nth substance listed

CCC(C)=O + Cc1ccccc1
viscosity, 101 kPa
Details | 298.15 K | 303.15 K | 308.15 K
x1 = 0.1009 | – | 0.516 mPa·s | –
x1 = 0.2412 | – | 0.496 mPa·s | –
x1 = 0.3948 | – | 0.475 mPa·s | –
x1 = 0.524 | – | 0.458 mPa·s | –
x1 = 0.7006 | – | 0.431 mPa·s | –
x1 = 0.8899 | – | 0.397 mPa·s | –
x2 = 0.0856 | 0.4052 mPa·s and 0.4052 mPa·s | 0.3822 mPa·s and 0.3822 mPa·s | 0.3593 mPa·s and 0.3593 mPa·s
x2 = 0.1724 | 0.4244 mPa·s and 0.4244 mPa·s | 0.3996 mPa·s and 0.3996 mPa·s | 0.3756 mPa·s and 0.3756 mPa·s
x2 = 0.2624 | 0.4439 mPa·s and 0.4439 mPa·s | 0.4176 mPa·s and 0.4176 mPa·s | 0.3922 mPa·s and 0.3922 mPa·s
x2 = 0.337 | 0.4594 mPa·s and 0.4594 mPa·s | 0.432 mPa·s and 0.432 mPa·s | 0.4061 mPa·s and 0.4061 mPa·s
x2 = 0.433 | 0.4781 mPa·s and 0.4781 mPa·s | 0.4494 mPa·s and 0.4494 mPa·s | 0.423 mPa·s and 0.423 mPa·s
x2 = 0.5555 | 0.4987 mPa·s and 0.4987 mPa·s | 0.4688 mPa·s and 0.4688 mPa·s | 0.4417 mPa·s and 0.4417 mPa·s
x2 = 0.66 | 0.5145 mPa·s and 0.5145 mPa·s | 0.4844 mPa·s and 0.4844 mPa·s | 0.4575 mPa·s and 0.4575 mPa·s
x2 = 0.769 | 0.5308 mPa·s and 0.5308 mPa·s | 0.5002 mPa·s and 0.5002 mPa·s | 0.4738 mPa·s and 0.4738 mPa·s
x2 = 0.8831 | 0.5472 mPa·s and 0.5472 mPa·s | 0.5168 mPa·s and 0.5168 mPa·s | 0.4909 mPa·s and 0.4909 mPa·s

COC(C)=O + Cc1ccccc1C
viscosity [mPa·s], 101 kPa
Details | 298.15 K | 308.15 K
x1 = 0.0434 | 0.731 | 0.636
x1 = 0.1489 | 0.668 | 0.587
x1 = 0.2499 | 0.616 | 0.546
x1 = 0.3517 | 0.57 | 0.508
x1 = 0.444 | 0.533 | 0.478
x1 = 0.4974 | 0.513 | 0.462
x1 = 0.5506 | 0.495 | 0.447
x1 = 0.6497 | 0.465 | 0.422
x1 = 0.7494 | 0.438 | 0.399
x1 = 0.851 | 0.414 | 0.378
x1 = 0.9458 | 0.394 | 0.36

COc1ccccc1N + ClC(Cl)(Cl)Cl
viscosity [mPa·s], 100 kPa
Details | x2 = 0.0821 | x2 = 0.1726 | x2 = 0.2547 | x2 = 0.3403 | x2 = 0.4788 | x2 = 0.5789 | x2 = 0.6781 | x2 = 0.7641 | x2 = 0.8447
298.15 K | 5.011 | 4.611 | 4.247 | 3.866 | 3.249 | 2.8 | 2.355 | 1.967 | 1.603
303.15 K | 4.596 | 4.234 | 3.904 | 3.559 | 2.996 | 2.587 | 2.179 | 1.824 | 1.489
308.15 K | 4.218 | 3.892 | 3.593 | 3.28 | 2.768 | 2.394 | 2.02 | 1.694 | 1.385
313.15 K | 3.917 | 3.619 | 3.346 | 3.057 | 2.585 | 2.239 | 1.892 | 1.587 | 1.299
318.15 K | 3.643 | 3.371 | 3.121 | 2.856 | 2.42 | 2.099 | 1.776 | 1.491 | 1.221

COc1ccccc1N + ClC(Cl)C(Cl)Cl
viscosity [mPa·s], 100 kPa
Details | x1 = 0.0911 | x1 = 0.1962 | x1 = 0.2806 | x1 = 0.3816 | x1 = 0.4976 | x1 = 0.6023 | x1 = 0.7116 | x1 = 0.8104 | x1 = 0.9212
303.15 K | 1.786 | 2.165 | 2.464 | 2.82 | 3.224 | 3.584 | 3.957 | 4.291 | 4.66
308.15 K | 1.673 | 2.029 | 2.309 | 2.639 | 3.013 | 3.347 | 3.692 | 4.001 | 4.337
313.15 K | 1.562 | 1.895 | 2.154 | 2.458 | 2.802 | 3.111 | 3.427 | 3.709 | 4.012

COC(C)=O + ClC(Cl)Cl
303.15 K, 101.3 kPa
Details | viscosity [mPa·s]
x1 = 0.1026 | 0.5228
x1 = 0.2027 | 0.525
x1 = 0.3012 | 0.5197
x1 = 0.4009 | 0.5018
x1 = 0.5028 | 0.4782
x1 = 0.6033 | 0.4508
x1 = 0.7158 | 0.4176
x1 = 0.813 | 0.3893
x1 = 0.8983 | 0.3686

COC(C)=O + ClCCCl
303.15 K, 101.3 kPa
Details | viscosity [mPa·s]
x1 = 0.1016 | 0.6754
x1 = 0.199 | 0.6342
x1 = 0.2978 | 0.594
x1 = 0.4014 | 0.5517
x1 = 0.4966 | 0.5168
x1 = 0.5959 | 0.4819
x1 = 0.6976 | 0.4445
x1 = 0.8973 | 0.378

COc1ccccc1N + ClCCCl
viscosity [mPa·s], 100 kPa
Details | x1 = 0.0875 | x1 = 0.1658 | x1 = 0.2536 | x1 = 0.3656 | x1 = 0.4856 | x1 = 0.5902 | x1 = 0.6816 | x1 = 0.7704 | x1 = 0.8841
303.15 K | 1.101 | 1.438 | 1.814 | 2.291 | 2.797 | 3.235 | 3.613 | 3.98 | 4.448
308.15 K | 1.037 | 1.353 | 1.704 | 2.148 | 2.617 | 3.022 | 3.372 | 3.711 | 4.139
313.15 K | 0.974 | 1.27 | 1.596 | 2.004 | 2.436 | 2.808 | 3.13 | 3.439 | 3.829

COCCOC + Clc1ccccc1
298.15 K, 101 kPa
Details | viscosity [mPa·s]
x1 = 0.1219 | 0.721
x1 = 0.2379 | 0.685
x1 = 0.3487 | 0.649
x1 = 0.4543 | 0.611
x1 = 0.5554 | 0.573
x1 = 0.652 | 0.537
x1 = 0.7445 | 0.503
x1 = 0.8332 | 0.47
x1 = 0.9183 | 0.439

COc1ccccc1N + NCCO
viscosity [mPa·s], 100 kPa
Details | x1 = 0.0897 | x1 = 0.1649 | x1 = 0.2579 | x1 = 0.3519 | x1 = 0.4497 | x1 = 0.5507 | x1 = 0.6549 | x1 = 0.7626 | x1 = 0.8735
303.15 K | 13.58 | 12.87 | 11.99 | 11.1 | 10.18 | 9.22 | 8.23 | 7.2 | 6.14
308.15 K | 11.07 | 10.54 | 9.87 | 9.2 | 8.5 | 7.77 | 7.02 | 6.24 | 5.44
313.15 K | 9.09 | 8.7 | 8.2 | 7.7 | 7.17 | 6.63 | 6.07 | 5.49 | 4.88
318.15 K | 7.24 | 6.97 | 6.64 | 6.29 | 5.94 | 5.56 | 5.18 | 4.78 | 4.37

COCCOC + Nc1ccccc1
298.15 K, 101 kPa
Details | viscosity [mPa·s]
x1 = 0.103 | 2.958
x1 = 0.2053 | 2.326
x1 = 0.3069 | 1.85
x1 = 0.4079 | 1.488
x1 = 0.5082 | 1.194
x1 = 0.6079 | 0.96
x1 = 0.7068 | 0.778
x1 = 0.8052 | 0.625
x1 = 0.9029 | 0.505

CCCCC(CC)COC(=O)CC(C(=O)OCC(CC)CCCC)S(=O)(=O)[O-].C[NH+]1C=CN=C1 (centres undefined) + O
99.6 kPa, x2 = 0.09474
Details | viscosity [mPa·s]
293.15 K | 3381
303.15 K | 1440
313.15 K | 684
323.15 K | 359

CN(C)N + O
293.15 K, 101.3 kPa
Details | viscosity [mPa·s]
x1 = 0.0499 | 2.05
x1 = 0.1018 | 3.64
x1 = 0.1471 | 6.22
x1 = 0.2 | 8.22
x1 = 0.2498 | 8.46
x1 = 0.2984 | 7.51
x1 = 0.3466 | 6.25
x1 = 0.3995 | 4.78
x1 = 0.4482 | 4.23
x1 = 0.4994 | 2.95
x1 = 0.5955 | 2.28
x1 = 0.6986 | 1.27
x1 = 0.8064 | 0.9
x1 = 0.8999 | 0.69

CNC(=O)NC + O
101 kPa
Details | viscosity [mPa·s]
293.15 K, x1 = 0.000596 | 1.045
293.15 K, x1 = 0.06729 | 2.325
293.15 K, x1 = 0.08722 | 2.805
298.15 K, x1 = 0.1358 | 3.535
298.15 K, x1 = 0.2199 | 5.955
303.15 K, x1 = 0.08722 | 2.055
308.15 K, x1 = 0.11 | 2.135
308.15 K, x1 = 0.1358 | 2.545
313.15 K, x1 = 0.1358 | 2.195

C[C@H](N)C(=O)[O-].[Na+] + O
viscosity [mPa·s], 101 kPa
Details | x1 = 0.004484 | x1 = 0.008927 | x1 = 0.01333 | x1 = 0.0177 | x1 = 0.02202 | x1 = 0.02631 | x1 = 0.03478 | x1 = 0.0431 | x1 = 0.05127
293.15 K | 1.118 | 1.239 | 1.371 | 1.526 | 1.683 | 1.856 | 2.272 | 2.747 | 3.244
303.15 K | 0.886 | 0.979 | 1.077 | 1.192 | 1.305 | 1.436 | 1.726 | 2.062 | 2.399
313.15 K | 0.722 | – | 0.871 | 0.96 | 1.046 | 1.144 | 1.372 | 1.605 | 1.851
323.15 K | 0.602 | 0.662 | 0.722 | 0.791 | 0.859 | 0.935 | 1.1 | 1.286 | 1.477

OC[C@@H](O)[C@H](O)[C@@H](O)CO + O
viscosity [mPa·s], 101.3 kPa
Details | x1 = 0.00359 | x1 = 0.007154 | x1 = 0.0107 | x1 = 0.01421 | x1 = 0.0177 | x1 = 0.02631 | x1 = 0.03478 | x1 = 0.0431 | x1 = 0.05127
293.15 K | 1.06 | 1.14 | – | 1.32 | – | 1.72 | 2.09 | 2.42 | 2.85
303.15 K | 0.85 | 0.91 | 0.99 | 1.04 | – | 1.33 | 1.53 | 1.8 | 2.1
313.15 K | 0.69 | 0.78 | 0.79 | 0.83 | 0.9 | 1.02 | 1.19 | 1.38 | 1.6
323.15 K | 0.58 | 0.62 | – | 0.69 | 0.75 | 0.85 | 0.96 | 1.1 | 1.25

From the CheMixHub viscosity set
